Consider eight compounds from PubChem BioAssay (NCI).

Common to all, as to experiment: growth of human tumour cells (NCI), 48 h
In assay [1] the test system is IGROV1 ovarian.
Assay [2] has as its system DU-145 prostate.
Assay [3] has as its system HOP-92 NSCLC.
In assay [4] the test system is SK-MEL-2 melanoma.
The test system of assay [5] is MDA-MB-231 breast.
Assay [6] deals with SR leukemia.
Assay [7] concerns 786-0 renal.
For assay [8], the system named is NCI-H522 lung.
In assay [9] the test system is HT29 colon.
In assay [10] the test system is U251 CNS.

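Briefly, cells in 96-well plates were exposed to five compound concentrations for 48 h, and endpoints were estimated by linear interpolation. The concentration for 50% growth inhibition is given as GI50. Definition used: TGI = concentration required for complete inhibition of growth.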

In the case of `O=C(Nc1cc(Oc2cc(F)c(NC(=O)C3(C(=O)Nc4ccc(F)cc4)CC3)cc2F)ccn1)C1CC1`, the GI50 in assay [1] is 2850 nM; in assay [2], 3270 nM; in assay [3] it was 590 nM; in assay [4] it was 1350 nM; in assay [5], 2430 nM; in assay [6], 1700 nM. The GI50 is 3980 nM in assay [7], 2180 nM in assay [8], 929 nM in [9] and 3960 nM in assay [10]. In addition, the TGI is 7.61 µM in assay [1]; above 100 µM in assay [2]; 5.86 µM in [3]; 3.64 µM in assay [4]; above 100 µM in assay [5]; 5.38 µM in assay [6]. Also, the TGI in assay [7] is above 50.1 µM; in assay [8] it was 5.84 µM; in [9] it was 4.74 µM; in assay [10], above 46.3 µM.

`O=C1c2ccccc2C(=O)c2sc(Nc3ccccc3Cl)nc21`: the TGI in [1] was 28.3 µM; in assay [2] it was 31.4 µM; in [3] it was 27.9 µM; in assay [4], 34.5 µM; in assay [5], 13.7 µM; in assay [6] it was 12.1 µM. The TGI in assay [7] amounted to 27.9 µM; in assay [8] it was 9.61 µM; in assay [9], 45.4 µM; in assay [10], 19.5 µM.

`Cn1c(=S)c2[nH]c(SCCN3C(=O)c4ccccc4C3=O)nc2n(C)c1=O`: the TGI in assay [1], in assay [2], in assay [3], in [4], in assay [5] and in [6] was above 100 µM each time. Further, the TGI in assay [7], in assay [8], in assay [9] and in assay [10] was above 100 µM throughout.

Take `O=S(=O)(Nc1ccc(F)c(Cl)c1)c1ccc(-c2cnc(C3CC3)o2)cc1`: the GI50 was 418 nM in assay [1]; 592 nM in assay [2]; 367 nM in assay [3]; 657 nM in [4]; 727 nM in assay [5]; 83.8 nM in [6]. In addition, the GI50 in [7] was 495 nM; in assay [8] it was 164 nM; in assay [9], 259 nM; in assay [10], 438 nM. Besides, the TGI in assay [1] is 12.3 µM; in assay [2] it was 12.2 µM; in [3], 3.94 µM; in assay [4] it was 14 µM; in [5] it was 11 µM; in [6] it was above 42.3 µM. In addition, the TGI is 13.1 µM in [7], 3.75 µM in [8], 2.56 µM in assay [9] and 13.7 µM in assay [10].

For the compound `Cc1ccc(-c2nc([P+](c3ccccc3)(c3ccccc3)c3ccccc3)c(Nc3ccccc3)o2)cc1`, the GI50 was 708 nM in [1]; 1200 nM in [2]; 188 nM in [3]; 808 nM in assay [4]; 728 nM in [5]; 390 nM in assay [6]. The GI50 was 1180 nM in assay [7], 259 nM in assay [8], 344 nM in [9] and 585 nM in [10]. Further, the TGI amounted to 2.08 µM in assay [1]; 2.48 µM in assay [2]; 1.16 µM in [3]; 2.42 µM in assay [4]; 2.09 µM in assay [5]; 2.32 µM in assay [6]. For the same compound, the TGI was determined as 2.57 µM in assay [7], 1.15 µM in assay [8], 1.45 µM in assay [9] and 2.14 µM in assay [10].

For the compound `O=C(C[P+](c1ccccc1)(c1ccccc1)c1ccccc1)C[P+](c1ccccc1)(c1ccccc1)c1ccccc1`, the GI50 was 774 nM in assay [1]; 327 nM in assay [2]; 69.6 nM in assay [3]; 341 nM in [4]; 320 nM in assay [5]; 310 nM in [6]. Also, the GI50 in [7] was 496 nM; in assay [8], 141 nM; in assay [9] it was 285 nM; in assay [10], 828 nM. Further, the TGI in assay [1] was 2.56 µM; in [2], 1.3 µM; in [3], 0.294 µM; in assay [4] it was 1.04 µM; in [5] it was 1.4 µM; in [6], 3.89 µM. Further, the TGI in assay [7] was determined as 1.16 µM; in [8], 0.325 µM; in assay [9], 0.734 µM; in assay [10] it was 2.23 µM.

Take `CCOC(=O)c1cnn2c3ccccc3n(S(=O)(=O)c3ccc(OC)cc3)c12`: the GI50 in [1] is 478 nM; in [2], 395 nM; in assay [3], 670 nM; in assay [4], 4030 nM; in assay [5], 889 nM; in [6] it was 238 nM. Also, the GI50 was 666 nM in assay [7], 338 nM in assay [8], 310 nM in [9] and 377 nM in [10]. For the same compound, the TGI was above 100 µM in assay [1]; above 24.2 µM in assay [2]; 16 µM in [3]; above 100 µM in [4]; above 100 µM in assay [5]; above 100 µM in assay [6]. Besides, the TGI in [7] is above 100 µM; in [8], 38.8 µM; in assay [9] it was above 100 µM; in assay [10], above 100 µM.

Consider `O=C(NCc1ccco1)c1cccc(NC2=C(Cl)C(=O)N(Cc3ccccc3)C2=O)c1`, for which the GI50 in assay [1] was 2440 nM; in assay [2] it was 5300 nM; in assay [3], 7910 nM; in [4], 3300 nM; in assay [5], 17300 nM; in assay [6] it was 2940 nM. The GI50 in [7] was 3940 nM; in [8], 2840 nM; in [9], 18400 nM; in assay [10], 11500 nM. Moreover, the TGI in [1] was 11 µM; in [2] it was 24.7 µM; in assay [3], 33 µM; in assay [4], 20.7 µM; in assay [5] it was above 100 µM; in [6], 19.9 µM. Further, the TGI in [7] is 16.3 µM; in assay [8], 20.8 µM; in assay [9], above 100 µM; in [10] it was 60.5 µM.
